Assay results from ChEMBL document CHEMBL1144455, “A small molecule-kinase interaction map for clinical kinase inhibitors” (Nat Biotechnol, 2005).

Key:
[1] = target: Mitogen-activated protein kinase 8 (Homo sapiens, UniProt P45983)
[2] = target: Mitogen-activated protein kinase 14 (Homo sapiens, UniProt Q16539)
[3] = target: Tyrosine-protein kinase Yes (Homo sapiens, UniProt P07947)
[4] = target: Mitogen-activated protein kinase kinase kinase kinase 5 (Homo sapiens, UniProt Q9Y4K4)
[5] = target: Calcium/calmodulin-dependent protein kinase type II subunit delta (Homo sapiens, UniProt Q13557)
[6] = target: Cyclin-dependent kinase 5 (Homo sapiens, UniProt Q00535)
Chain of Cyclin-dependent kinase 5 (Q00535 whole entry): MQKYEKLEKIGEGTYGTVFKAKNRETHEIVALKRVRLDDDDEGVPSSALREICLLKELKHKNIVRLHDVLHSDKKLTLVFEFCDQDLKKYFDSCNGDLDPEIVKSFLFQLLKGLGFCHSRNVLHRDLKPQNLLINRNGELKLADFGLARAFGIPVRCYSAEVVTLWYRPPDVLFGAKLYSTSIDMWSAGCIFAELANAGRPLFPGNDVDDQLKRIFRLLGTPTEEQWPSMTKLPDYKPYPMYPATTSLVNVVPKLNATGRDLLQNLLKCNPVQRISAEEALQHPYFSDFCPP

Ephrin type-A receptor 3 = target: T1, Ephrin type-A receptor 3 (Homo sapiens, UniProt P29320)
T1 sequence (P29320 whole entry): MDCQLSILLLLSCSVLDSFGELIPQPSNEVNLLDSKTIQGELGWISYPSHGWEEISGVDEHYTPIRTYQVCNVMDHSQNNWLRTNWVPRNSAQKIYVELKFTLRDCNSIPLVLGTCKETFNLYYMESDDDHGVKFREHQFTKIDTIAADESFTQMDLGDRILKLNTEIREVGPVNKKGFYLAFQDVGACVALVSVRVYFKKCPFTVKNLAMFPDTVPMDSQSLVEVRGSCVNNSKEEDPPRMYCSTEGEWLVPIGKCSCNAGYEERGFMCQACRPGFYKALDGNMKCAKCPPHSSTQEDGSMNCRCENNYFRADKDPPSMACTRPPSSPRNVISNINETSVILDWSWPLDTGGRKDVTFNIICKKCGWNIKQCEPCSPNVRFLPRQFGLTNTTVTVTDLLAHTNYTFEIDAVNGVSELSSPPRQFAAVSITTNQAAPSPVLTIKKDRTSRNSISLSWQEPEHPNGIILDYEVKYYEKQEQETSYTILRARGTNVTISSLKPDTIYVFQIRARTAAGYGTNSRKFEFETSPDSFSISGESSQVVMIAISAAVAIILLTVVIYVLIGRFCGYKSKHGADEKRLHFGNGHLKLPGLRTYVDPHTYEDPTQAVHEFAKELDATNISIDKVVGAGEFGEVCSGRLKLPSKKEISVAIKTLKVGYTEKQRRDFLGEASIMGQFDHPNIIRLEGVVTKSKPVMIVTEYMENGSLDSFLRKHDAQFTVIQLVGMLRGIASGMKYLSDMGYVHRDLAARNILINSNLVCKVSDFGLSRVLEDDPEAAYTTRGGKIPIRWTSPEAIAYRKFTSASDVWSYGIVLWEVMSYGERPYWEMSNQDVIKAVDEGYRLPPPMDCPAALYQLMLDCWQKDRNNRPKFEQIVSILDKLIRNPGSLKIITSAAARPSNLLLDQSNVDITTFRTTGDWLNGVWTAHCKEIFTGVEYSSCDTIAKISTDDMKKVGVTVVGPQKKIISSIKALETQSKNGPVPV

[7] = target: Casein kinase I isoform epsilon (Homo sapiens, UniProt P49674)
Chain of Casein kinase I isoform epsilon (P49674 whole entry, canonical isoform): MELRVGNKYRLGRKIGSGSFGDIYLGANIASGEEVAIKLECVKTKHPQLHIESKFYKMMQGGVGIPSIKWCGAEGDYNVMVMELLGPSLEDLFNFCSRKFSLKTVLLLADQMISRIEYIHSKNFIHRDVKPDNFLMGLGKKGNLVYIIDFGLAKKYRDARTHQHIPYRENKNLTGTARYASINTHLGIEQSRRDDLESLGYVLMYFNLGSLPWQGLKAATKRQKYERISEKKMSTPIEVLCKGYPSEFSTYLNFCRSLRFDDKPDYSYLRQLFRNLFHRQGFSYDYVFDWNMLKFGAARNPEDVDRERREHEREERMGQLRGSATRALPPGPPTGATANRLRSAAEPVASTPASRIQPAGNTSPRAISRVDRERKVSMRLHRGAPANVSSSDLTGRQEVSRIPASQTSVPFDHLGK

[8] = target: Tyrosine-protein kinase SYK (Homo sapiens, UniProt P43405)
[9] = target: Serine/threonine-protein kinase PAK 5 (Homo sapiens, UniProt Q9P286)
[10] = target: Serine/threonine-protein kinase PAK 4 (Homo sapiens, UniProt O96013)
Chain of Serine/threonine-protein kinase PAK 4 (O96013 whole entry): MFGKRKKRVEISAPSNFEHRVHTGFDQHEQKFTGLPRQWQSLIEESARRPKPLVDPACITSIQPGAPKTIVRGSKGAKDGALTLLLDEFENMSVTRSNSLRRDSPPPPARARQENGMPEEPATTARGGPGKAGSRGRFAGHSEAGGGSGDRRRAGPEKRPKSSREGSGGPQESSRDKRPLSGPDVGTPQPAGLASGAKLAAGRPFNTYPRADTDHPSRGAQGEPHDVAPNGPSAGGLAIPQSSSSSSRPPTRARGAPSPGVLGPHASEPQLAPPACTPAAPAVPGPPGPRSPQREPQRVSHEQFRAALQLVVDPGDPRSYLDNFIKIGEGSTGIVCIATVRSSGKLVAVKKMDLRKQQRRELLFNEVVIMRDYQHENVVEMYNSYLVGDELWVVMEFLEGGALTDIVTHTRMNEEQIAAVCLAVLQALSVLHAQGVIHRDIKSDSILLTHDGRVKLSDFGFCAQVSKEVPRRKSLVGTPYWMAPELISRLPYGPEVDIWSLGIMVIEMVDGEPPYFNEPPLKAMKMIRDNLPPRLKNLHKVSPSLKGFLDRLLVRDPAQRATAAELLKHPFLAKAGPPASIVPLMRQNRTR

[11] = target: Calcium/calmodulin-dependent protein kinase kinase 1 (Homo sapiens, UniProt Q8N5S9)
[12] = target: T2, Serine/threonine-protein kinase Nek2 (Homo sapiens, UniProt P51955)
T2 sequence (P51955 whole entry): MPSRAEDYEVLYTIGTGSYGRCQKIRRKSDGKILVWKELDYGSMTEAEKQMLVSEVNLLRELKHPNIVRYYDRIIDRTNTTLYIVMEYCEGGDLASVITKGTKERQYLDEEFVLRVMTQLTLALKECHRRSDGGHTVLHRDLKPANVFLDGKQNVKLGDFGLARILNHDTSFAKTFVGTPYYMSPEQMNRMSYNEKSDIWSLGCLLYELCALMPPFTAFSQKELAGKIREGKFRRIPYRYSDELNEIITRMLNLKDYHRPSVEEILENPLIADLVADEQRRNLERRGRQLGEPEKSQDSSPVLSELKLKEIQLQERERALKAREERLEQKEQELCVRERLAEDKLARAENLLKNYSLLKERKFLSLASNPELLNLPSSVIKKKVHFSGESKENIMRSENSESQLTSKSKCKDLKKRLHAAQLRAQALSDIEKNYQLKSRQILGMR

[13] = target: Mitogen-activated protein kinase kinase kinase 4 (Homo sapiens, UniProt Q9Y6R4)
[14] = target: Tyrosine-protein kinase ABL1 (Homo sapiens, UniProt P00519)
[15] = target: Tyrosine-protein kinase ABL2 (Homo sapiens, UniProt P42684)
[16] = target: Serine/threonine-protein kinase 10 (Homo sapiens, UniProt O94804)
[17] = target: Tyrosine-protein kinase Lck (Homo sapiens, UniProt P06239)
[18] = target: Tyrosine-protein kinase ABL1 (Homo sapiens, UniProt P00519, H396P)
[19] = target: Tyrosine-protein kinase ABL1 (Homo sapiens, UniProt P00519, Q252H)
[20] = target: Tyrosine-protein kinase ABL1 (Homo sapiens, UniProt P00519, M351T)
[21] = target: MAP kinase-interacting serine/threonine-protein kinase 2 (Homo sapiens, UniProt Q9HBH9)
Chain of MAP kinase-interacting serine/threonine-protein kinase 2 (Q9HBH9 whole entry): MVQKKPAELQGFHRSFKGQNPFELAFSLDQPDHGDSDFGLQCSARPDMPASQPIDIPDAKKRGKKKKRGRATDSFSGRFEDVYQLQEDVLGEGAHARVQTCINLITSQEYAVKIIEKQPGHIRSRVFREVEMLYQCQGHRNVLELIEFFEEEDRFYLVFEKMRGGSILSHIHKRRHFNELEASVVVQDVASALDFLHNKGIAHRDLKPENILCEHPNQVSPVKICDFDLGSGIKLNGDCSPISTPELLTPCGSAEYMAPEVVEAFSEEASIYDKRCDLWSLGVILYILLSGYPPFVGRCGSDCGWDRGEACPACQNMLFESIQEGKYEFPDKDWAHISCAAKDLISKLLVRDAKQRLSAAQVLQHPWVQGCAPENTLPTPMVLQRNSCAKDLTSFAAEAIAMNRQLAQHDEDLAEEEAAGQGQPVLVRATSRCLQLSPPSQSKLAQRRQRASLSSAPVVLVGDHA

[22] = target: Tyrosine-protein kinase ABL1 (Homo sapiens, UniProt P00519, Y253F)
[23] = target: Epidermal growth factor receptor (Homo sapiens, UniProt P00533)
Chain of Epidermal growth factor receptor (P00533 whole entry): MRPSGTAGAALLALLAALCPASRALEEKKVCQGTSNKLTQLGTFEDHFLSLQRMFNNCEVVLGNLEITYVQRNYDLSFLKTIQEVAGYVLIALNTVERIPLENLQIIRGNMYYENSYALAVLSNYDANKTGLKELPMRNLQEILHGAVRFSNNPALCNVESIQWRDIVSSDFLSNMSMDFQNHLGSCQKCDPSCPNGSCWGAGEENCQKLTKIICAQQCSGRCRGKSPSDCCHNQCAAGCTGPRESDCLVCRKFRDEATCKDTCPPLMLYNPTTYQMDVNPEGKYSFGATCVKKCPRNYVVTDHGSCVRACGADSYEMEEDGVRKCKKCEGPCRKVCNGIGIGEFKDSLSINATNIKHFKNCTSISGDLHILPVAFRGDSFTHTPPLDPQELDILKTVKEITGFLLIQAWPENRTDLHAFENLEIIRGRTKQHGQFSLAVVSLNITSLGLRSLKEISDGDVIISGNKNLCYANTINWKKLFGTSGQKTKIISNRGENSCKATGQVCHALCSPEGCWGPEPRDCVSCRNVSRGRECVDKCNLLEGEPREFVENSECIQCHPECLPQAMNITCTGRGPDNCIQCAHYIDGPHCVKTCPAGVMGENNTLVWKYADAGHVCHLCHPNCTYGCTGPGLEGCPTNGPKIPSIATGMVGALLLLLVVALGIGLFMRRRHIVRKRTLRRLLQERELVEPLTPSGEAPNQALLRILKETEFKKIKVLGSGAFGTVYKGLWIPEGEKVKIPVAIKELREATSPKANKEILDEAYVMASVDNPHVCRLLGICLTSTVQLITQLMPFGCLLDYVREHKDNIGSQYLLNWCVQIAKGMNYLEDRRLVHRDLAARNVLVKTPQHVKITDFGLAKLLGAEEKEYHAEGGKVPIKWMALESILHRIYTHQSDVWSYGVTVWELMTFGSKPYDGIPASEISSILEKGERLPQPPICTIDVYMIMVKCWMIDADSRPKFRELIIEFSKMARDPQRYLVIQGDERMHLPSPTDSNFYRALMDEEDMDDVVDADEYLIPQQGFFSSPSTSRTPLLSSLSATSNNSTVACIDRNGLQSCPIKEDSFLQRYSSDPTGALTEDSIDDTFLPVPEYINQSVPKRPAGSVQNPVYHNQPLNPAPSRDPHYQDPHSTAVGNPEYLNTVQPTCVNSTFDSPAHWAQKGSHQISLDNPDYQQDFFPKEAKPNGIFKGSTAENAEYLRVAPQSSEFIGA

[24] = target: STE20-like serine/threonine-protein kinase (Homo sapiens, UniProt Q9H2G2)

Measured: Kd

Chain of Tyrosine-protein kinase Yes (P07947 whole entry): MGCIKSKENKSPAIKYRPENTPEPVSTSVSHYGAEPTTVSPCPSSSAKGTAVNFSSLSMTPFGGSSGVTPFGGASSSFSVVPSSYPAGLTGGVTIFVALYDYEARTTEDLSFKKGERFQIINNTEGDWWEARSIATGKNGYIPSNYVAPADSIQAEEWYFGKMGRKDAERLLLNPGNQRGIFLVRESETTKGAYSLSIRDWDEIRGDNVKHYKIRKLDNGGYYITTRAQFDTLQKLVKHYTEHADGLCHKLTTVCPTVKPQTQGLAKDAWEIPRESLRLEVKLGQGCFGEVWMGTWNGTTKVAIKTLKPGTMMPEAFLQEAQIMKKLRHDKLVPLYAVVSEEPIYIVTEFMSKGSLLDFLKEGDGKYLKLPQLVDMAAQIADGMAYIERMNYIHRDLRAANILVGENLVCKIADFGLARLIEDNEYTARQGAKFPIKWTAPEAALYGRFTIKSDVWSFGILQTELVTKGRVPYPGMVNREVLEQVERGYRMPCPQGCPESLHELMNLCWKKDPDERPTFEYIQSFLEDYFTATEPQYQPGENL
Chain of Mitogen-activated protein kinase kinase kinase kinase 5 (Q9Y4K4 whole entry): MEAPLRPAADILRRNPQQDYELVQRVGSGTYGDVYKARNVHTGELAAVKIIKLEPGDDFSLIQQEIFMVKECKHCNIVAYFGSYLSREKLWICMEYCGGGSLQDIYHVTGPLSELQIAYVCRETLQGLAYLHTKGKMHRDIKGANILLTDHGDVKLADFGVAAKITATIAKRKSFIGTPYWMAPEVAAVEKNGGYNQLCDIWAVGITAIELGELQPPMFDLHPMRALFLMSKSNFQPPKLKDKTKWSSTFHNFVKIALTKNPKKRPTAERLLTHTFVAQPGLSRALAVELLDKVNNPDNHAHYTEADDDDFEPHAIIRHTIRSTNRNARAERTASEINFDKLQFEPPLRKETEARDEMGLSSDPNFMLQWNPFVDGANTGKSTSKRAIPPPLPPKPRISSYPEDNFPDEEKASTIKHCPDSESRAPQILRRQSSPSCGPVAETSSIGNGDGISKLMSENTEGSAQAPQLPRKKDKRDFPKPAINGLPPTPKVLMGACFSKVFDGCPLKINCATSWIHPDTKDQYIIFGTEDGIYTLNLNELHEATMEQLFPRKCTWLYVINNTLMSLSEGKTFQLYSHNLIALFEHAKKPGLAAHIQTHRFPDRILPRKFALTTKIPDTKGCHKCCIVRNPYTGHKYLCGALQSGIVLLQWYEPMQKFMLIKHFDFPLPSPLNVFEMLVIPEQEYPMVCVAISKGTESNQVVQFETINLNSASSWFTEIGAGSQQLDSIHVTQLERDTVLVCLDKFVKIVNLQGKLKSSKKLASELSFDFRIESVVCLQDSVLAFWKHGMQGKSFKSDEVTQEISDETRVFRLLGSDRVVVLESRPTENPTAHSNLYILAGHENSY
Chain of Mitogen-activated protein kinase 8 (P45983 whole entry): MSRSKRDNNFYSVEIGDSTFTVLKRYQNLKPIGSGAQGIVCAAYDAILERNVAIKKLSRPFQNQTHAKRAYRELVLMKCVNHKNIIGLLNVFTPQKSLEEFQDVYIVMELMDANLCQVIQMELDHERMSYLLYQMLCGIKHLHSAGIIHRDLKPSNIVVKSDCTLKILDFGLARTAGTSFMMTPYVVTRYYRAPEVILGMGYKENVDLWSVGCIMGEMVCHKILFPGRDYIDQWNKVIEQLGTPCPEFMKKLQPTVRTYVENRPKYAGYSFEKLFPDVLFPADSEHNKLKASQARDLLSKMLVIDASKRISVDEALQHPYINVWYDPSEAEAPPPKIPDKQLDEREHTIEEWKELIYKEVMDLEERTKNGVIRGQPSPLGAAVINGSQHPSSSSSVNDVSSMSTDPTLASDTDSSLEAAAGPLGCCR

C#Cc1cccc(Nc2ncnc3cc(OCCOC)c(OCCOC)cc23)c1 [ERLOTINIB]
not listed: [14] | [15] | [16] | [17] | [18] | [19] | [20] | [21] | [22] | [23] | [24]
Not Active: all other assays above

COc1cc2c(N3CCN(C(=O)Nc4ccc(OC(C)C)cc4)CC3)ncnc2cc1OCCCN1CCCCC1 [TANDUTINIB]
not listed: [4] | [23] | [24]
Not Active: all other assays above

O=c1ncn2nc(Sc3ccc(F)cc3F)ccc2c1-c1c(Cl)cccc1Cl [NEFLAMAPIMOD]
not listed: [2] | [3] | [14] | [15] | [17] | [18] | [19] | [20] | [22]
Not Active: all other assays above

C[S+]([O-])c1ccc(-c2nc(-c3ccc(F)cc3)c(-c3ccncc3)[nH]2)cc1 (stereo unspecified) [SB-203580]
not listed: [1] | [2] | [7] | [23] | [24]
Not Active: all other assays above

Cc1ccc(NC(=O)c2ccc(CN3CCN(C)CC3)cc2)cc1Nc1nccc(-c2cccnc2)n1 [IMATINIB]
not listed: [1] | [2] | [8] | [14] | [15] | [17] | [18] | [19] | [20] | [22]
Not Active: all other assays above

CC[C@H](CO)Nc1nc(NCc2ccccc2)c2ncn(C(C)C)c2n1 [SELICICLIB]
not listed: [6] | [7]
Not Active: all other assays above

Oc1ccc(-c2nc(-c3ccc(F)cc3)c(-c3ccncc3)[nH]2)cc1 [SB-202190]
not listed: [1] | [2] | [7] | [23]
Not Active: all other assays above

CCOc1cc2ncc(C#N)c(Nc3ccc(F)c(Cl)c3)c2cc1NC(=O)/C=C/CN(C)C [PELITINIB]
Not Active: [1] | [2] | [5] | [6] | [9] | [10] | [11] | [21]

Oc1c2ccccc2c2c3c(cccc13)N=N2 [SP-600125]
not listed: [1] | [6] | Ephrin type-A receptor 3 | [7] | [8] | [21] | [23] | [24]
Not Active: all other assays above
